According to patent US9567342B2, “Certain protein kinase inhibitors” (SHANGHAI FOCHON PHARMACEUTICAL CO., LTD., priority 2012, dated 2017):

Legend:
[1] = system: SU-DHL-1 cells; experiment: Inhibition activity of cell proliferation (CCK-8 assay); format: cell-based; conditions: Homo sapiens, 72 h exposure
Method: SU-DHL-1 cells were seeded in 96-well tissue culture plates. On the next day, cells were exposed to various concentrations of compounds and further cultured for 72 h. Cell proliferation was then determined using Cell Counting Kit-8 [(CCK-8), Dojindo]assay. Briefly, add 10 μL of the CCK-8 solution to each well of the plate. Incubate the plate for 1-4 hours in the incubator. Measure the absorbance at 450 nm using a multi-well spectrophotometer (SpectraMAX 190, Molecular Devices). The inhibition rate (%) was calculated using the following equation: [1−(A450 Compound/A450 Control)]×100%. IC50 values were calculated according to inhibition curve by four-parameter fit.

[2] = system: NCI-H2228 cells; experiment: In vivo antitumor activity, NCI-H2228 cells implanted sc in nude mice; conditions: QD, oral, NCI-H2228 xenograft
Method: Male nude mice (6-week old) were housed in a specific pathogen-free room with a 12 h light/dark schedule at 20-25° C. and were fed an autoclaved chow diet and water ad libitum.
NCI-H2228 cells at a density of […] in 200 μL were first implanted sc into the right flank of each nude mice and then allowed to grow to above 230 mm^3, the mice were randomly assigned into control and treatment groups (n=6 per group for compound treated group, n=12 per group for vehicle group). Vehicle control group were given vehicle alone, and treatment groups were received Compound 4, LDK378 or Crizotinib as indicated doses via oral administration once daily for 21 days. The mice tumor volumes in each group were measured twice per week.

C[C@@H](Oc1cc(-c2cnn(C3CCNCC3)c2)cnc1N)c1c(Cl)ccc(F)c1Cl [Crizotinib]
IC50 [1]: 0.0754 to 0.154 µM
Mean relative tumor volume (RTV) ± S.E. ([2]; D0, 50 mg/kg): 100.00
Mean relative tumor volume (RTV) ± S.E. ([2]; D4, 50 mg/kg): 67.71±
Mean relative tumor volume (RTV) ± S.E. ([2]; D7, 50 mg/kg): 54.10
Mean relative tumor volume (RTV) ± S.E. ([2]; D11, 50 mg/kg): 44.71
Mean relative tumor volume (RTV) ± S.E. ([2]; D14, 50 mg/kg): 42.69
Mean relative tumor volume (RTV) ± S.E. ([2]; D18, 50 mg/kg): 41.44
Mean relative tumor volume (RTV) ± S.E. ([2]; D21, 50 mg/kg): 43.69

Cc1cc(Nc2nc(Nc3ccccc3S(=O)(=O)C(C)C)c3c(C)n[nH]c3n2)c2c(c1C1CCN(C)CC1)C[C@@H](C)O2 [Example 4]
IC50 [1]: 0.0109 µM
Mean relative tumor volume (RTV) ± S.E. ([2]; D0, 10 mg/kg): 100.00
Mean relative tumor volume (RTV) ± S.E. ([2]; D4, 10 mg/kg): 52.92
Mean relative tumor volume (RTV) ± S.E. ([2]; D7, 10 mg/kg): 36.55
Mean relative tumor volume (RTV) ± S.E. ([2]; D11, 10 mg/kg): 29.20
Mean relative tumor volume (RTV) ± S.E. ([2]; D14, 10 mg/kg): 18.82
Mean relative tumor volume (RTV) ± S.E. ([2]; D18, 10 mg/kg): 9.48
Mean relative tumor volume (RTV) ± S.E. ([2]; D21, 10 mg/kg): 5.28

CCC(=O)N1CCC(c2c(C)cc(Nc3ncc(Cl)c(Nc4ccccc4S(=O)(=O)C(C)C)n3)c3c2C[C@@H](C)O3)CC1 [Example 49, (R)-1-(4-(7-((5-chloro-4-((2-(isopropylsulfonyl)phenyl)amino)pyrimidin-2-yl)amino)-2,5-dimethyl-2,3-dihydrobenzofuran-4-yl)piperidin-1-yl)propan-1-one]
IC50 [1]: 0.0978 µM

Cc1cc(Nc2ncc(Cl)c(Nc3ccccc3S(=O)(=O)C(C)C)n2)c2c(c1C1CCN(C(=O)C(C)C)CC1)C[C@@H](C)O2 [Example 50, (R)-1-(4-(7-((5-chloro-4-((2-(isopropylsulfonyl)phenyl)amino)pyrimidin-2-yl)amino)-2,5-dimethyl-2,3-dihydrobenzofuran-4-yl)piperidin-1-yl)-2-methylpropan-1-one]
IC50 [1]: 0.0812 µM

Cc1cc(Nc2ncc(Cl)c(Nc3ccccc3S(=O)(=O)C(C)C)n2)c2c(c1C1CCN(C(=O)C3CC3)CC1)C[C@@H](C)O2 [Example 51, (R)-(4-(7-((5-chloro-4-((2-(isopropylsulfonyl)phenyl)amino)pyrimidin-2-yl)amino)-2,5-dimethyl-2,3-dihydrobenzofuran-4-yl)piperidin-1-yl)(cyclopropyl)methanone]
IC50 [1]: 0.0524 µM

CCS(=O)(=O)N1CCC(c2c(C)cc(Nc3ncc(Cl)c(Nc4ccccc4S(=O)(=O)C(C)C)n3)c3c2C[C@@H](C)O3)CC1 [Example 52, (R)-5-chloro-N-2-(4-(1-(ethylsulfonyl)piperidin-4-yl)-2,5-dimethyl-2,3-dihydrobenzofuran-7-yl)-N-4-(2-(isopropylsulfonyl)phenyl)pyrimidine-2,4-diamine]
IC50 [1]: 0.059 µM

Cc1cc(Nc2ncc(Cl)c(Nc3ccccc3S(=O)(=O)C(C)C)n2)c2c(c1C1CCN(S(=O)(=O)C(C)C)CC1)C[C@@H](C)O2 [Example 53]
IC50 [1]: 0.11 µM

Cc1cc(Nc2ncc(Cl)c(Nc3ccccc3S(=O)(=O)C(C)C)n2)c2c(c1C1CCN(S(=O)(=O)C3CC3)CC1)C[C@@H](C)O2 [Example 54, (R)-5-chloro-N-2-(4-(1-(cyclopropylsulfonyl)piperidin-4-yl)-2,5-dimethyl-2,3-dihdyrobenzofuran-7-yl)-N-4-(2-(isopropylsulfonyl)phenyl)pyrimidine-2,4-diamine]
IC50 [1]: 0.333 µM

CO[C@H](C)C(=O)N1CCC(c2c(C)cc(Nc3ncc(Cl)c(Nc4ccccc4S(=O)(=O)C(C)C)n3)c3c2C[C@H](C)O3)CC1 [Example 55, (R)-1-(4-((S)-7-((5-chloro-4-((2-(isopropylsulfonyl)phenyl)amino)pyrimidin-2-yl)amino)-2,5-dimethyl-2,3-dihydrobenzofuran-4-yl)piperidin-1-yl)-2-methoxypropan-1-one]
IC50 [1]: 0.0357 µM

CO[C@H](C)C(=O)N1CCC(c2c(C)cc(Nc3ncc(Cl)c(Nc4ccccc4S(=O)(=O)C(C)C)n3)c3c2C[C@@H](C)O3)CC1 [Example 56, (R)-1-(4-((R)-7-((5-chloro-4-((2-(isopropylsulfonyl)phenyl)amino)pyrimidin-2-yl)amino)-2,5-dimethyl-2,3-dihydrobenzofuran-4-yl)piperidin-1-yl)-2-methoxypropan-1-one]
IC50 [1]: 0.0263 µM

CO[C@@H](C)C(=O)N1CCC(c2c(C)cc(Nc3ncc(Cl)c(Nc4ccccc4S(=O)(=O)C(C)C)n3)c3c2C[C@@H](C)O3)CC1 [Example 57, (S)-1-(4-((R)-7-((5-chloro-4-((2-(isopropylsulfonyl)phenyl)amino)pyrimidin-2-yl)amino)-2,5-dimethyl-2,3-dihydrobenzofuran-4-yl)piperidin-1-yl)-2-methoxypropan-1-one]
IC50 [1]: 0.0328 µM

CO[C@@H](C)C(=O)N1CCC(c2c(C)cc(Nc3ncc(Cl)c(Nc4ccccc4S(=O)(=O)C(C)C)n3)c3c2C[C@H](C)O3)CC1 [Example 58, (S)-1-(4-((S)-7-((5-chloro-4-((2-(isopropylsulfonyl)phenyl)amino)pyrimidin-2-yl)amino)-2,5-dimethyl-2,3-dihydrobenzofuran-4-yl)piperidin-1-yl)-2-methoxypropan-1-one]
IC50 [1]: 0.141 µM

Cc1cc(Nc2ncc(Cl)c(Nc3ccccc3S(=O)(=O)C(C)C)n2)c(OC(C)C)cc1C1CCNCC1 [LDK378]
IC50 [1]: 0.0946 to 0.339 µM
Mean relative tumor volume (RTV) ± S.E. ([2]; D0, 20 mg/kg): 100.00
Mean relative tumor volume (RTV) ± S.E. ([2]; D4, 20 mg/kg): 71.66
Mean relative tumor volume (RTV) ± S.E. ([2]; D7, 20 mg/kg): 56.79
Mean relative tumor volume (RTV) ± S.E. ([2]; D11, 20 mg/kg): 49.09
Mean relative tumor volume (RTV) ± S.E. ([2]; D14, 20 mg/kg): 48.58
Mean relative tumor volume (RTV) ± S.E. ([2]; D18, 20 mg/kg): 35.67
Mean relative tumor volume (RTV) ± S.E. ([2]; D21, 20 mg/kg): 31.44
